Test results taken from patent publication US11613531B2, “Inhibitors of RHO associated coiled-coil containing protein kinase” (Kadmon Corporation, LLC, priority 2017, dated 2023).
Where two headings read alike, the source gives them in different places.

How the values were obtained:
[1] = molecular target: Recombinant ROCK2 (amino acids 1-552) (Homo sapiens (Human), UniProt O75116); assay: Z′-Lyte kinase assay, ROCK2; type: biochemical; details: for inhibition at 1 µM: 1 μM compound, read-out: ROCK2 % inh. @ [conc]
Chain of Recombinant ROCK2 (amino acids 1-552) (O75116 1-552): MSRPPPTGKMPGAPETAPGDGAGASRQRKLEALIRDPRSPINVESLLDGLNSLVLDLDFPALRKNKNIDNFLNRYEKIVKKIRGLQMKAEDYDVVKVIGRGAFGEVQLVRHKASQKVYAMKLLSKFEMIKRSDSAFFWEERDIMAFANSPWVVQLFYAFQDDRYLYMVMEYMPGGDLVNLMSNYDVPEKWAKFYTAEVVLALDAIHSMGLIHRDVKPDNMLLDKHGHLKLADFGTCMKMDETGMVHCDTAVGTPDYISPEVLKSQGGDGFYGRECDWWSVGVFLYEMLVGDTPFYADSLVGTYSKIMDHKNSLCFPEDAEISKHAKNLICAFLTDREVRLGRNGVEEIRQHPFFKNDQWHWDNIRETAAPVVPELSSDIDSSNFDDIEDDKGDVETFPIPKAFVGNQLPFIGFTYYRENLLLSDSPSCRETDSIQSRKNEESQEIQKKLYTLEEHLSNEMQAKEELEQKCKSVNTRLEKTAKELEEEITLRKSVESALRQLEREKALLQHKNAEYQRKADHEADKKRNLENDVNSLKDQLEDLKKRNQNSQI
How it was run: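 Recombinant human ROCK1 (aa 1-535) or ROCK2 (aa 1-552) activity read by Z′-Lyte kinase assay. Percent inhibition at 1 μM compound was normalized to DMSO control; IC50 from 9-point 2-fold serial dilutions by nonlinear regression.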

[2] = tested on: ppMlc (T18/S19) levels in A7R5 cells; assay: A7R5 in-cell ELISA (pMLC); type: cell-based, Rat; details: Rattus norvegicus, A7R5, A7R5 cells; for inhibition at 10 µM: 10 μM compound; for inhibition at 10 µM / inhibition at 1 µM: read-out: pMLC % inh A7R5 @ [conc]; for inhibition at 1 µM: 1 μM compound
How it was run: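 A7R5 rat aortic smooth muscle cells seeded 24 h, then treated 90 min with a 9-point 2-fold compound dilution series. Fixed cells probed for ppMlc (T18/S19) by colorimetric in-cell ELISA; cellular IC50 from nonlinear regression curve fit.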

[3] = 9 points 2-fold serial dilution

Row | Structure (SMILES) | inhibition at 10 µM [2] | inhibition at 1 µM [1] | further results
1 | COc1ccccc1NC1CCCN(c2nccc(Nc3ccc4[nH]ncc4c3)n2)C1 (centres unmarked) [Example 244, N-(2-(3-((2-methoxyphenyl)amino)piperidin-1-yl)pyrimidin-4-yl)-1H-indazol-5-amine] | 0.8% |  | IC50 [1]: > 10 µM
2 | CCC1CCN(c2nc(C)c(C)c(Nc3ccc4[nH]ncc4c3)n2)CCN1 (centres unmarked) [Example 23, N-(2-(5-ethyl-1,4-diazepan-1-yl)-5,6-dimethylpyrimidin-4-yl)-1H-indazol-5-amine] | 46.4% | 29.5% | 
3 | CCC1CNCCCN1c1nccc(Nc2ccc3[nH]ncc3c2)n1 (centres unmarked) [Example 241, N-(2-(2-ethyl-1,4-diazepan-1-yl)pyrimidin-4-yl)-1H-indazol-5-amine] | 81% | 85.2% | IC50 ([2]; ppMlc (T18/S19)): 954 nM
4 | c1cc(-c2cn[nH]c2)ccc1Nc1nc(N2CCCNCC2)nc2c1CSC2 [Example 263, N-(4-(1H-pyrazol-4-yl)phenyl)-2-(1,4-diazepan-1-yl)-5,7-dihydrothieno[3,4-d]pyrimidin-4-amine] | 82% | 101% | IC50 ([2]; ppMlc (T18/S19)): 1390 nM
5 | c1cc(Nc2cnc3[nH]ccc3c2)nc(N2CCCNCC2)n1 [Example 370, N-(2-(1,4-diazepan-1-yl)pyrimidin-4-yl)-1H-pyrrolo[2,3-b]pyridin-5-amine] | 5.8% |  | IC50 [1]: 6.27 µM
6 | CC1CN(c2ncc(F)c(Nc3ccc4[nH]ncc4c3)n2)CC(C)N1 (centres unmarked) [Example 150, N-(2-(3,5-dimethylpiperazin-1-yl)-5-fluoropyrimidin-4-yl)-1H-indazol-5-amine] | 44.4% | 43.2% | IC50 ([2]; ppMlc (T18/S19)): 4970 nM
7 | CCC1CN(c2ncc(Cl)c(Nc3ccc4[nH]ncc4c3)n2)CCN1 (centres unmarked) [Example 190, N-(5-chloro-2-(3-ethylpiperazin-1-yl)pyrimidin-4-yl)-1H-indazol-5-amine] | 45.9% | 41% | 
8 | Cc1cnc(N2CCCNCC2C)nc1Nc1ccc2[nH]ncc2c1 (centres unmarked) [Example 104, N-(5-methyl-2-(2-methyl-1,4-diazepan-1-yl)pyrimidin-4-yl)-1H-indazol-5-amine] |  | 82.9% | inhibition at 1 µM [2]: 31.6%; IC50 ([2]; ppMlc (T18/S19)): 997 nM
9 | c1cc(-c2ccc(Nc3nc(N4C5CCC4CNC5)nc4c3CNC4)cc2)ccn1 [Example 306, 2-(3,8-diazabicyclo[3.2.1]octan-8-yl)-N-(4-(pyridin-4-yl)phenyl)-6,7-dihydro-5H-pyrrolo[3,4-d]pyrimidin-4-amine] |  |  | IC50 [1]: > 1 µM; IC50 [2]: > 10000 nM
10 | c1cc(Nc2ccc(-c3ccnc4[nH]ccc34)cc2)nc(N2CCNCC2)n1 [Example 368, N-(4-(1H-pyrrolo[2,3-b]pyridin-4-yl)phenyl)-2-(piperazin-1-yl)pyrimidin-4-amine] | 91.3% |  | IC50 [1]: 1.05 µM; IC50 [2]: 1630 nM
11 | Fc1cnc(N2CC3CNCC(C3)C2)nc1Nc1ccc2[nH]ncc2c1 [Example 167, N-(2-(3,7-diazabicyclo[3.3.1]nonan-3-yl)-5-fluoropyrimidin-4-yl)-1H-indazol-5-amine] |  | 88.2% | inhibition at 1 µM [2]: 22.5%
12 | Cc1cc(Nc2ccc3[nH]ncc3c2)nc(N2CC3(CCNCC3)c3ccccc32)n1 [Example 138, N-(6-methyl-2-(spiro[indoline-3,4′-piperidin]-1-yl)pyrimidin-4-yl)-1H-indazol-5-amine] |  | 9.1% | inhibition at 1 µM [2]: 15.2%
13 | CC(C)C1CN(c2ncc(F)c(Nc3ccc4[nH]ncc4c3)n2)CCN1 (centres unmarked) [Example 147, N-(5-fluoro-2-(3-isopropylpiperazin-1-yl)pyrimidin-4-yl)-1H-indazol-5-amine] | 47.8% | 37.6% | 
14 | CC1CN(c2ncc(Cl)c(Nc3ccc4[nH]ncc4c3)n2)CCCN1 (centres unmarked) [Example 90, N-(5-chloro-2-(3-methyl-1,4-diazepan-1-yl)pyrimidin-4-yl)-1H-indazol-5-amine] | 54.2% | 73.8% | IC50 ([2]; ppMlc (T18/S19)): 2200 nM
15 | Cc1cc(Nc2ccc3[nH]ncc3c2)nc(N2CC(C)NC(C)C2)n1 (centres unmarked) [Example 113, N-(2-(3,5-dimethylpiperazin-1-yl)-6-methylpyrimidin-4-yl)-1H-indazol-5-amine] | 47.5% | 58.1% | IC50 ([2]; ppMlc (T18/S19)): 2880 nM
16 | CCC1CCN(c2ncc(Cl)c(Nc3ccc4[nH]ncc4c3)n2)CCN1 (centres unmarked) [Example 188, N-(5-chloro-2-(5-ethyl-1,4-diazepan-1-yl)pyrimidin-4-yl)-1H-indazol-5-amine] | 47.9% | 44.9% | 
17 | CCC1CNCCN1c1nccc(Nc2ccc3[nH]ncc3c2)n1 (centres unmarked) [Example 235, N-(2-(2-ethylpiperazin-1-yl)pyrimidin-4-yl)-1H-indazol-5-amine] |  | 94.4% | IC50 [1, 3]: 0.054 µM; IC50 ([2]; ppMlc (T18/S19)): 510 nM

Row | Structure (SMILES) | inhibition at 10 µM [2] | inhibition at 1 µM [1] | further results
18 | CN1CCc2nc(N3C4CCC3CNC4)nc(Nc3ccc(-c4cn[nH]c4)cc3)c2C1 [Example 303, N-(4-(1H-pyrazol-4-yl)phenyl)-2-(3,8-diazabicyclo[3.2.1]octan-8-yl)-6-methyl-5,6,7,8-tetrahydropyrido[4,3-d]pyrimidin-4-amine] |  |  | IC50 [1]: 0.257 µM; IC50 [2]: > 10000 nM
19 | CCC1CN(c2ncc(F)c(Nc3ccc4[nH]ncc4c3)n2)CCCN1 (centres unmarked) [Example 148, N-(2-(3-ethyl-1,4-diazepan-1-yl)-5-fluoropyrimidin-4-yl)-1H-indazol-5-amine] | 46% | 55.1% | 
20 | COc1cnc(N2CCNCC2)nc1Nc1ccc2[nH]ncc2c1 [Example 30, N-(5-methoxy-2-(piperazin-1-yl)pyrimidin-4-yl)-1H-indazol-5-amine] | 56.4% | 90.6% | IC50 ([2]; ppMlc (T18/S19)): 1120 nM
21 | c1cc(Nc2ccc(-c3nnc[nH]3)cc2)nc(N2CCNCC2)n1 [Example 354, N-(4-(4H-1,2,4-triazol-3-yl)phenyl)-2-(piperazin-1-yl)pyrimidin-4-amine] | 6.4% |  | IC50 [1]: > 10 µM
22 | O=c1ccc(-c2ccc(Nc3ccnc(N4CCNCC4)n3)cc2)n[nH]1 [Example 357, 6-(4-((2-(piperazin-1-yl)pyrimidin-4-yl)amino)phenyl)pyridazin-3 (2H)-one] | 6.35% |  | IC50 [1]: 1.9 µM
23 | Cc1cnc(N2C3CCC2CNC3)nc1Nc1ccc2[nH]ncc2c1 [Example 107, N-(2-(3,8-diazabicyclo[3.2.1]octan-8-yl)-5-methylpyrimidin-4-yl)-1H-indazol-5-amine] |  | 98.3% | inhibition at 1 µM [2]: 26%
24 | N[C@H]1CCN(c2nccc(Nc3ccc(-c4cn[nH]c4)cc3)n2)C1 [Example 254, (S)—N-(4-(1H-pyrazol-4-yl)phenyl)-2-(3-aminopyrrolidin-1-yl)pyrimidin-4-amine] | 16.2% |  | IC50 [1]: 1.23 µM
25 | c1cc(Nc2ccc3[nH]ncc3c2)nc(N2CC3CC(C2)N3)n1 [Example 199, N-(2-(3,6-diazabicyclo[3.1.1]heptan-3-yl)pyrimidin-4-yl)-1H-indazol-5-amine] | 49.6% |  | IC50 [1, 3]: 0.151 µM; IC50 ([2]; ppMlc (T18/S19)): 525 nM
26 | CCC1CNCCCN1c1ncc(C)c(Nc2ccc3[nH]ncc3c2)n1 (centres unmarked) [Example 105, N-(2-(2-ethyl-1,4-diazepan-1-yl)-5-methylpyrimidin-4-yl)-1H-indazol-5-amine] |  | 53.9% | inhibition at 1 µM [2]: 15.1%
27 | c1cc(Nc2ccc(-c3cn[nH]c3)cc2)nc(N2CCNCC2)n1 [Example 38, N-(4-(1H-pyrazol-4-yl)phenyl)-2-(piperazin-1-yl)pyrimidin-4-amine] |  | 63.1% | IC50 [1]: 0.451 µM; inhibition at 1 µM [2]: 9.2%
28 | Cc1cnc(N2CCNC(C)C2)nc1Nc1ccc2[nH]ncc2c1 (centres unmarked) [Example 91, N-(5-methyl-2-(3-methylpiperazin-1-yl)pyrimidin-4-yl)-1H-indazol-5-amine] | 46.7% | 47.9% | 
29 | Fc1cnc(N2CC3(CCNCC3)c3ccccc32)nc1Nc1ccc2[nH]ncc2c1 [Example 176, N-(5-fluoro-2-(spiro[indoline-3,4′-piperidin]-1-yl)pyrimidin-4-yl)-1H-indazol-5-amine] |  | 0% | inhibition at 1 µM [2]: 14.5%
30 | c1cc(Nc2ccc3[nH]ncc3c2)nc(N2CC3CCC(C2)N3)n1 [Example 229, N-(2-(3,8-diazabicyclo[3.2.1]octan-3-yl)pyrimidin-4-yl)-1H-indazol-5-amine] | 81% |  | IC50 [1, 3]: 0.077 µM
31 | Cc1cc(Nc2ccc3[nH]ncc3c2)nc(N2CC(C3CCNCC3)c3ccccc32)n1 (centres unmarked) [Example 137, N-(6-methyl-2-(3-(piperidin-4-yl)indolin-1-yl)pyrimidin-4-yl)-1H-indazol-5-amine] |  | 21.6% | inhibition at 1 µM [2]: 24.4%
32 | Cc1cc(Nc2ccc3[nH]ncc3c2)nc(N2CC3CNCC(C3)C2)n1 [Example 130, N-(2-(3,7-diazabicyclo[3.3.1]nonan-3-yl)-6-methylpyrimidin-4-yl)-1H-indazol-5-amine] |  | 93.4% | inhibition at 1 µM [2]: 27.7%
33 | c1cc(Nc2ccc3[nH]ncc3c2)nc(N2CC3CNC(C3)C2)n1 (centres unmarked) [Example 78, N-(2-(3,6-diazabicyclo[3.2.1]octan-3-yl)pyrimidin-4-yl)-1H-indazol-5-amine] |  | 99.1% | inhibition at 1 µM [2]: 20.3%
34 | COc1cnc(N2CCNC(C)C2)nc1Nc1ccc2[nH]ncc2c1 (centres unmarked) [Example 31, N-(5-methoxy-2-(3-methylpiperazin-1-yl)pyrimidin-4-yl)-1H-indazol-5-amine] | 58% | 78.1% | IC50 ([2]; ppMlc (T18/S19)): 1850 nM
